Measurements: patent US7232912B2, “Indazole compounds, pharmaceutical compositions, and methods for mediating or inhibiting cell proliferation” (Agouron Pharmaceuticals, Inc., priority 2000, dated 2007)

Columns and labels:
FAK = assay: Coupled Spectrophotometric (FAK) Assay; format: biochemical
Experimental: Coupled Spectrophotometric (FAK) Assay
Tyrosine kinase assays were monitored using a Beckman DU 650 Spectrophotometer. Production of ADP was coupled to oxidation of NADH using phosphoenolpyruvate (PEP) through the actions of pyruvate kinase (PK) and lactic dehydrogenase (LDH). The oxidation of NADH was monitored by following the decrease in absorbance at 340 nm (ε340=6.22 cm^−1 mM^−1). Typical reaction solutions contained: 1 mM PEP, 250 μM NADH, 50 units of LDH/mL, 20 units of PK/mL, 5 mM DTT, in 200 mM Hepes, pH 7.5 and varying concentrations of poly(E4Y1), ATP and MgCl2. Assays were initiated with 40 nM of […].

CDK4/cyclin D3 = CDK4/cyclin D3 (Homo sapiens, UniProt P11802); assay: Inhibition of CDK4/Cyclin D Retinoblastoma Kinase Activity; format: biochemical; settings: apparent Ki
Outline: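 Human CDK4/cyclin D3 (full-length or cyclin D3 1–264), insect-cell expressed, at 5 or 50 nM with His-tagged Rb 386–928 substrate, 25 μM ATP plus [32P/33P]ATP, pH 7.4, 2% DMSO, 30 °C for 20 min; tight binders used 5 nM enzyme for 60 min. Filter-captured phospho-Rb quantified by phosphorimager. Apparent Ki from competitive or tight-binding inhibition fits.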

CDK2/cyclin A = molecular target: T1, CDK2/cyclin A (Homo sapiens, UniProt P24941); assay: Inhibition of CDK2/Cyclin A Retinoblastoma Kinase Activity; format: biochemical; settings: apparent Ki
T1 construct: made in house; host or cells: CDK2: insect cells (baculovirus); cyclin A: E. coli
Outline: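 Baculovirus-expressed CDK2 complexed with proteolyzed cyclin A, at 150 nM or 5 nM, phosphorylating an Rb fragment with 25 µM [32/33P]ATP in HEPES pH 7.4, 2% DMSO. Reactions run 20 min at 30°C, EDTA-stopped, filter-captured; apparent Ki from competitive or tight-binding competitive fits.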

FGFR1 tyrosine kinase = molecular target: T2, FGFR1 tyrosine kinase (Homo sapiens, UniProt P11362, C488A/C584S/L457V); assay: Inhibition of phosphorylated FGF receptor tyrosine kinase activity; format: biochemical; settings: for inhibition at 1 µM: read-out: FGF % Inhib. at 1 μM
T2 construct: the cytosolic domain of FGFR1 tyrosine kinase (amino acids 456–766); made in house; host or cells: Sf9 insect cells (baculovirus)
Experimental: (§1) Inhibition of Phosphorylated FGF Receptor and LCK Tyrosine Kinase Activity
(§2) Cloning, expression and purification of the cytosolic domain of FGFR1 tyrosine kinase (amino acids 456–766) containing three amino acid substitutions (L457V, C488A, and C584S) were conducted as previously described (Mohammadi, M., Schlessinger, J., & Hubbard, S. R. (1996) Cell 86, 577–587). This domain was expressed in Sf9 insect cells using a baculovirus expression vector, and protein was purified using conventional techniques. The LCK tyrosine kinase was expressed in insect cells as an N-terminal deletion starting from amino acid 223 to the end of the protein at amino acid 509. The N-terminus of the protein also had two amino acid substitutions, P223M and C 224D. Kinases were purified using conventional chromatographic methods.
(§3) Tyrosine kinase activity was measured using a coupled, continuous spectrophotometric assay, in which production of phosphorylated poly(Glu, Tyr; 4:1) substrate and ADP is coupled to the pyruvate kinase-catalyzed transfer of a phosphate from phosphoenolpyruvate to ADP, with generation of pyruvate and regeneration of ATP. Pyruvate production is in turn coupled to the lactate dehydrogenase-catalyzed reduction of pyruvate to form lactate, with concomitant conversion of NADH to NAD+. Loss of NADH is monitored by measuring absorbance at 340 nm (see e.g., Technikova-Dobrova et al., “Spectrophotometric determination of functional characteristics of protein kinases with coupled enzymatic assay,” FEBS Letters, vol. 292 (1991), pp. 69–72). Enzyme activity was measured in the presence of 200 mM HEPES (pH 7.5), 2 mM phosphoenolpyruvate, 0.3 mM NADH, 20 mM MgCl2, 100 μM ATP, 5 mM DTT, 5.1 or 25 mM poly (Glu,Tyr) 4:1 for P-FGF or P-LCK assays, respectively, and 15 units/mL each of pyruvate kinase and lactate dehydrogenase. Phosphorylated FGF receptor kinase was present at 100 nM and phosphorylated LCK kinase was present at 50 nM. Assays were performed under initial rate conditions at 37° C., and rates were corrected for any background rate measured in the absence of enzyme. Percent inhibition was calculated relative to control enzyme assayed in the presence of 2% (v/v) DMSO.

HCT 116 cell line = assay: Inhibition of Cell Growth (MTT tetrazolium salt assay); format: cell-based; settings: Homo sapiens, HCT 116, MTT; for IC50: 50% inhibition of growth, read-out: HCT 116 IC50; for IC90: read-out: HCT 116 IC90
Outline: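 HCT 116 cells in McCoy's 5A were dosed 4 h after plating, in 0.5% (v/v) DMSO, then held 4–6 days at 37 °C, 5% CO2. MTT at 0.2 mg/mL final for 4 h; DMSO-solubilized formazan read at 540 nm. IC50 taken from the linear part of a semi-log plot versus DMSO-only controls.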

LCK tyrosine kinase = molecular target: T3, LCK tyrosine kinase (Homo sapiens, UniProt P06239, C224D/P223M); assay: Inhibition of phosphorylated LCK tyrosine kinase activity; format: biochemical; settings: read-out: LCK % Inhib. at 1 μM
T3 construct: starting from amino acid 223 to the end of the protein at amino acid 509; made in house; host or cells: insect cells
Experimental: as §1, §2, §3

human CHK1 = molecular target: T4, human CHK1 (Homo sapiens, UniProt O14757); assay: CHK1 Assay (coupled spectrophotometric); format: biochemical
T4 construct: C-terminally His-tagged full-length human CHK1 (FL-CHK1) was expressed using the baculovirus/insect cell system; made in house; host or cells: baculovirus/insect cells
T4 sequence (O14757 1-476): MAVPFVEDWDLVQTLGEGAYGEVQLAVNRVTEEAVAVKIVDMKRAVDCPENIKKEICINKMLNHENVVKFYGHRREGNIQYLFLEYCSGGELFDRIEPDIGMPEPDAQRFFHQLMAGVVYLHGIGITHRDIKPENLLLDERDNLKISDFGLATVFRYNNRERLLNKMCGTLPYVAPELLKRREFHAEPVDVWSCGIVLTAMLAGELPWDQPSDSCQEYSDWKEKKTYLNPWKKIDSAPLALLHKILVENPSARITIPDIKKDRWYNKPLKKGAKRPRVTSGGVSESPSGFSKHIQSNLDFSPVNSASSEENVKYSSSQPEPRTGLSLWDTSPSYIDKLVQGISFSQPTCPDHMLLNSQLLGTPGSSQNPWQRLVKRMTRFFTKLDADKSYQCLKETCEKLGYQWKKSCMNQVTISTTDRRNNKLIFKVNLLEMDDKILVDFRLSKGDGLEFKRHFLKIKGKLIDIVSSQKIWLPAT
Description: C-terminally His-tagged full-length human CHK1 (FL-CHK1) was expressed using the baculovirus/insect cell system. It contains 6 histidine residues (6×His-tag) at the C-terminus of the 476 amino acid human CHK1. The protein was purified by conventional chromatographic techniques.
The production of ADP from ATP that accompanies phosphoryl transfer to the synthetic substrate peptide Syntide-2 ([…]) was coupled to oxidation of NADH using phosphoenolpyruvate (PEP) through the actions of pyruvate kinase (PK) and lactic dehydrogenase (LDH). The oxidation of NADH was monitored by following the decrease of absorbance at 340 nm (ε340=6.22 cm^−1 mM^−1) using a HP8452 spectrophotometer. Typical reaction solutions contained: […]; 0.15 mM NADH; 28 units of LDH/ml; 16 units of PK/ml; 3 mM DTT; 0.125 mM Syntide-2; 0.15 mM ATP; 25 mM MgCl2 in 50 mM TRIS, pH 7.5; and 400 mM NaCl. Assays were initiated with 10 nM of FL-CHK1. Ki values were determined by measuring initial enzyme activity in the presence of varying concentrations of test compounds. The data were analyzed using Enzyme Kinetic and Kaleidagraph software.

T2 sequence (P11362 456-766 L457V/C488A/C584S): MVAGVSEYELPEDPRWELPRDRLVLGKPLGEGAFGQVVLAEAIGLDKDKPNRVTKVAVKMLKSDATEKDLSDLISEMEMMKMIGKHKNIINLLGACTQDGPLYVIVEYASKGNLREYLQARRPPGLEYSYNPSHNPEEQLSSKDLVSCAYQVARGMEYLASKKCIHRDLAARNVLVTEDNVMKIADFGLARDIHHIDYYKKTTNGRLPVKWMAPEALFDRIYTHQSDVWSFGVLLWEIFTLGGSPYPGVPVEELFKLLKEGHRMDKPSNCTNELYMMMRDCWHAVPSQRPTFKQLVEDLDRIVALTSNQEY
Chain of CDK4/cyclin D3 (P11802 2-303 limits assumed): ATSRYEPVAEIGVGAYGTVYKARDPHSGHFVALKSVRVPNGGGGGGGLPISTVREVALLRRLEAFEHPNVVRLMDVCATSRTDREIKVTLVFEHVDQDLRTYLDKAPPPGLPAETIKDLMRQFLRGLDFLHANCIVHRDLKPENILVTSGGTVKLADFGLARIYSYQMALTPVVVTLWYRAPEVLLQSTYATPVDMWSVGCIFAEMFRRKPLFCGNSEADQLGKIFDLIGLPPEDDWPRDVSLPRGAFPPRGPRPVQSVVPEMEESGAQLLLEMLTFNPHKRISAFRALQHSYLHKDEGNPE
Chain of CDK4/cyclin D3 (P30281 1-264 limits assumed, further chain): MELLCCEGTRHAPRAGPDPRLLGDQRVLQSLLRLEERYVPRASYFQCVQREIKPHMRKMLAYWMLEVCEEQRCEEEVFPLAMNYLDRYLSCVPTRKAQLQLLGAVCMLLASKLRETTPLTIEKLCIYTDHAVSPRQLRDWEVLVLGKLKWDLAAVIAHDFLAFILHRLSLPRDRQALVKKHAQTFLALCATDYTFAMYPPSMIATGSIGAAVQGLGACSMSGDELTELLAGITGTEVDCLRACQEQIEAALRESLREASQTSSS
T3 sequence (P06239 223-509 P223M/C224D): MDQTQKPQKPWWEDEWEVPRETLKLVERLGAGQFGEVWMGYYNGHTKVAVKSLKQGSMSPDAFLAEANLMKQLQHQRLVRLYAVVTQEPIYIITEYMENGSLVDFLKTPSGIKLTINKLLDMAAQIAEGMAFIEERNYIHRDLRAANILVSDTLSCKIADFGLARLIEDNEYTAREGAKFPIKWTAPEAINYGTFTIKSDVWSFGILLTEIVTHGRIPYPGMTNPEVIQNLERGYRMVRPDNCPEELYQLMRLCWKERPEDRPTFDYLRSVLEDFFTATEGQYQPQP

Structure (SMILES) | FAK % Inhibition at 1 μM (FAK) | Ki (CDK4/cyclin D3) | Ki (CDK2/cyclin A) | inhibition at 1 µM (FGFR1 tyrosine kinase) | IC50 (HCT 116 cell line) | IC90 (HCT 116 cell line) | inhibition at 1 µM (LCK tyrosine kinase) | Ki (human CHK1) | inhibition at 20 µM (human CHK1) | Ki (FGFR1 tyrosine kinase)
OC1CCCN(c2ccc3[nH]nc(/C=C/c4ccccc4)c3c2)C1 (stereo not drawn) [Example 28, 1-[3-((E)Styryl)-1H-indazol-5-yl]-piperidin-3-ol] | 61% | 0.68 µM | 0.72 µM | – | – | – | – | – | – | –
Nc1cccc2c(-c3ccc4[nH]nc(/C=C/c5ccccc5)c4c3)cncc12 [Example 45] | 63% | 0.012 µM | 0.017 µM | 58.7% | 2.1 µM | 5 µM | – | – | – | –
OC1CCN(c2ccc3[nH]nc(/C=C/c4ccccc4)c3c2)CC1 [Example 27, 1-[3-((E)Styryl)-1H-indazol-5-yl]-piperidin-4-ol] | 44% | 1.5 µM | 1.6 µM | – | – | – | – | – | – | –
Clc1ccncc1-c1ccc2[nH]nc(/C=C/c3ccccc3)c2c1 [Example 42, 5-(4-Chloro-pyridin-3-yl)-3-(E)-styryl-1H-indazole] | 78% | 0.0082 µM | 0.0172 µM | 70.3% | 3 µM | 5 µM | – | – | – | –
Cc1c(O)cccc1-c1ccc2[nH]nc(-c3nc4c(O)cccc4[nH]3)c2c1 [Example 21, 2-[5-(3-Hydroxy-2-methyl-phenyl)-1H-indazol-3-yl]-1H-benzoimidazol-4-ol] | – | 0.237 µM | 0.049 µM | 54% | – | – | 23% | 8.55 µM | – | –
COc1cccc(-c2ccc3[nH]nc(-c4nc5ccccc5[nH]4)c3c2)c1 [Example 5, 3-(1H-Benzoimidazol-2-yl)-5-(3-methoxyphenyl)-1H-indazole] | – | 0.48 µM | 0.69 µM | – | – | – | – | – | 56% | –
C(=C\c1n[nH]c2ccc(-c3ccccc3)cc12)/c1ccccc1 [Example 1, 5-Phenyl-3-Styryl-1H-Indazole] | 32% | 1.7 µM | 11 µM | – | – | – | – | 6.7 µM | – | –
Nc1ccc2[nH]nc(-c3ccc[nH]3)c2c1 [Example 84, 5-Amino-3-(2-Pyrrolyl)-1H-indazole] | – | 34 µM | 28 µM | – | – | – | – | 22.5 µM | – | –
c1ccc2c(-c3ccc4[nH]nc(-c5nc6ccccc6[nH]5)c4c3)cncc2c1 [Example 25, 4-[3-(1H-Benzoimidazol-2-yl)-1H-indazol-5-yl]-isoquinoline] | – | 0.01 µM | 0.001 µM | – | 0.33 µM | 1.1 µM | – | – | – | 0.44 µM
CNCc1cccc2[nH]c(-c3n[nH]c4ccc(-c5cncc6ccccc56)cc34)nc12 [Example 32, [2-(5-Isoquinolin-4-yl-1H-indazol-3-yl)-1H-benzoimidazol-4-yl-methyl]-methyl-amine] | – | 0.00041 µM | 0.00025 µM | 29.7% | 0.086 µM | 0.23 µM | – | – | – | –
Fc1cccc2cncc(-c3ccc4[nH]nc(/C=C/c5ccccc5)c4c3)c12 [Example 44] | – | 0.019 µM | 0.029 µM | 56.2% | 5 µM | 5 µM | – | – | – | –
Oc1cc(F)c(-c2ccc3[nH]nc(-c4nc5ccccc5[nH]4)c3c2)c(F)c1 [Example 50, 4-[-3-(1H-Benzoimidazol-2-yl)-1H-indazol-5-yl]-3,5-difluoro-phenol] | – | 0.253 µM | 0.073 µM | 89.6% | 1.8 µM | 5 µM | – | – | – | –
Cc1c(-c2ccc3[nH]nc(/C=C/c4ccccc4)c3c2)ccc(CCCO)c1O [Example 22, 6-(3-Hydroxy-propyl)-2-methyl-3-[3-((E)-styryl)-1H-indazol-5-yl]-phenol] | – | 0.015 µM | 0.094 µM | 93.5% | 5 µM | 5 µM | – | – | – | –
Cc1c(-c2ccc3[nH]nc(-c4nc5ccccc5[nH]4)c3c2)cncc1-c1c[nH]cn1 [Example 65, 3-(1H-Benzoimidazol-2-yl)-5-[5-(1H-imidazol-4-yl)-4-methyl-pyridin-3-yl]-1H-indazole] | – | 0.0028 µM | 0.001 µM | 44.1% | 0.39 µM | 1.3 µM | – | – | – | –
